From US20050215498A1, “Method for the protection of endothelial and epithclial cells during chemotherapy” (priority 2002, published 2005)
Where two headings read alike, the source gives them in different places.

Key:
[1] = system: human microvascular endothelial cells (HMEC); format: cell-based
Description: All cell culture reagents have been purchased by Gibco BRL (Karlsruhe, Germany) unless stated otherwise. 2-Fluoroadenine 9-beta-D-arabinofuranoside (F-Ara) was obtained from Sigma, Deisenhofen, Germany, Defibrotide vials were obtained from Prociclide™, Crinos, Como, Italy.
(§1) An established method for detecting apoptosis in human endothelial cells was performed as previously described^20 using flow cytometry (FACScan™ and CellQuest™ software, Becton Dickinson, Heidelberg, Germany). Endothelial and epithelial cells were either left untreated or incubated with F-Ara in descending concentrations (range: 10 μg/mL to 0.1 μg/mL) in the presence or absence of Defibrotide for 48 hours. Afterwards, cells were washed in PBS/10% FCS and stained with the necrosis detecting dye propidium iodide (PI, 0.2 μg/mL, Sigma, Deisenhofen, Germany). Apoptotic cells were identified by a PI-negative staining and by a characteristic side scatter image distinct from that of non-apoptotic cells. At least three experiments per cell type have been performed.
(§2) An alternative method for the detection of apoptosis used microscopic analysis of DNA fluorescence labeled cells. 1×10 ^5/plate endothelial cells were seeded in 35 mm petri dishes (Nunc, Wiesbaden, Germany). These cells were treated as given above and subsequently fixed with Methanol/Acetone (1:1) for 2 minutes, washed once in PBS and stained with 4,6-Diamidino-2-phenylindole (DAPI) (0.5 μg/mL, Sigma, Deisenhofen, Germany), dissolved in 20% Glycerin/PBS. Samples were mounted and subjected to microscopic analysis.
In order to assess the influence of F-Ara on the viability of cultured human endothelial cells, HMEC were incubated with descending pharmacologically relevant concentrations (10 μg/mL to 0.1 μg/mL) of 2-Fluoroadenine 9-beta-D-arabinofuranoside as the metabolized form of fludarabine. […] After 48 hours of incubation HMEC were subjected to apoptosis assays using the detection of cellular granularity of propidium iodide negative cells (side scatter (SSC) image in flow cytometry) and microscopic analyses of DAPI-stained cells, respectively.
In order to exclude unspecific artifical extracellular interaction of F-Ara and Defibrotide in vitro HMEC were pretreated with Defibrotide for 1 hour and subsequently, after 3 washing steps, incubated with F-Ara for another 48 hours and vice versa.

[2] = system: SW 480 gut epithelial cell line; assay: Flow cytometric apoptosis analysis in SW 480; format: cell-based; settings: F-Ara 10 μg/mL, 48 hours
Description: as §1
(§3) Skin, the gastrointestinal tract (GIT) and most likely the lung are among the primary targets of GvHD. Therefore, it was reasonable to test the influence of F-Ara on cell lines derived from these organs. Cells from keratinocyte (HaCaT), GIT (SW 480), alveolar (A549) and bronchial epithelial (BEAS-2B) cell lines as well as primary bronchial epithelial cells were incubated with F-Ara (10 μg/mL) as given for FIGS. 1 and 2 and assayed in flow cytometric apoptosis analyses 48 hours post treatment. […] Again, the protective potential of Defibrotide (100 μg/mL) was assessed.

[3] = system: BEAS-2B bronchial epithelial cell line and primary bronchial epithelial cells; assay: Flow cytometric apoptosis analysis in bronchial epithelial cells; format: cell-based; settings: F-Ara 10 μg/mL, 48 hours
Description: as §1, §3

[4] = system: primary acute myeloid leukemia (AML) cells; assay: Propidium iodide staining (vitality) of primary AML cells; format: cell-based, human; settings: 48 hours
Description: (§4) F-Ara: 10 μg/mL. D: 100 μg/mL. A: Propidium iodide staining of primary acute myeloid leukemia (AML) cells derived from a patient in blast crisis (70% blasts of total PBMC count). Results are given in mean % vitality of three independent experiments. *: p=0.008 of Control- versus F-Ara-treated AML cells. B: Flow cytometric analysis of the SSC-image of PI-negative PBMC. Shown is one representative out of five independent experiments with different blood donors.
Next to its desirable protective capacity for endothelial and epithelial cells against F-Ara induced apoptosis it was important to investigate whether Defibrotide would also interfere with the anti-leukaemic properties of F-Ara. To address this question, primary peripheral blood derived acute myeloid leukaemic (AML) cells with a blast amount of 70% were thawed, kept in culture for 24 hours and subsequently treated with F-Ara in the presence or absence of Defibrotide for another 48 hours. […] However, F-Ara induced cell death in up to 80% of the cells. […] This could be observed after as early as 24 hours of incubation. […] We next asked whether Defibrotide might modulate the effect of F-Ara against normal haematopoetic cells and performed apoptosis assays (SSC-image) with PBMC from normal human blood donors. […]

[5] = system: PBMC from normal human blood donors; assay: Apoptosis assay (SSC-image) with PBMC; format: cell-based
Description: as §4
as §1, with “performed. […]” for “performed.”

[6] = system: ICAM-1 expression on HMEC; assay: Flow cytometric analysis of ICAM-1 expression on HMEC; format: cell-based, human
Description: (§5) Cell surface expression of ICAM-1 (Becton Dickinson/Pharmingen, Heidelberg, Germany) and MHC class I (w6/32, hybridoma supernatant, ATCC, Manassas, Va., USA) molecules on HMEC was assessed by the indirect immunofluorescence technique and subsequent flow cytometry using the FACScan™ flow cytometer and the Cell-Quest™ analysis program (Becton Dickinson, Heidelberg, Germany). Endothelial cells were treated as given and after incubation harvested with trypsin/EDTA (Gibco), washed once in cold PBS/10% FCS and incubated 1 hour on ice with 5 μg/mL of anti-adhesion molecule MoAbs. Cells were washed again and incubated with a goat anti-mouse IgG-FITC conjugated antibody F(ab)2 fragment (Dako, Hamburg, Germany) for 45 minutes on ice. Cells were then washed in PBS/10% FCS and subjected to analysis. Viability of the cells was determined by concurrent propidium iodide (0.2 μg/mL, Sigma, Deisenhofen, Germany) staining. Omitting of the first antibody served as a negative control to detect unspecific fluorescence.
Based on previous observations that pretransplant conditioning not only damages, but also leads to proinflammatory activation of endothelial cells in terms of adhesion molecule induction,^15 we next investigated the expression of ICAM-1 under the influence of F-Ara. […] We next asked whether Defibrotide would also be functional as an antagonist of F-Ara in this experimental setting. HMEC were treated with F-Ara as given and incubated in the presence or absence of descending concentrations of Defibrotide.

[7] = system: MHC class I molecules on HMEC; assay: Flow cytometric analysis of MHC class I on HMEC; format: cell-based, human; settings: for induction of mean fluorescence intensity of MHC class I: 24 hours
Description: as §5
(§6) Since a proinflammatory activation of target cells is often associated with increased expression of major histocompatibility antigens (MHC) class I and II, we did further flow cytometric analyses for these antigens after incubation with F-Ara in various concentrations for 24 hours.

MHC class II on HMEC = settings: F-Ara various concentrations, 24 hours, data not shown
Description: as §5, §6

[8] = system: HMEC as target cells for allogeneic CTL; assay: 51Cr release assay, lysis of HMEC by allogeneic PBMC / CD8+ CTL; format: cell-based, human
Description: Peripheral blood mononuclear cells (PBMC) were derived from heparinized (Novo Nordisk, Mainz, Germany) blood of healthy human volunteers or buffy coats from the Bavarian Red Cross according to a standard protocol using Ficoll hypaque (Pharmacia, Freiburg, Germany) density gradient centrifugation. Cells were then stimulated in a ratio of 1:1 and 2:1 with irradiated (20 Gy) HMEC for 7 days in the presence of Interleukin 2 (50 U/mL) and 10% human AB serum (Sigma, Deisenhofen, Germany). Alternatively, PBMC were selected for CD8+ T cells and natural killer (NK) cells using cell isolation kits according to the manufactuer's instructions (MACS™, Miltenyi Bio-tech, Bergisch-Gladbach, Germany) based on the deletion of non CD8+ and non NK cells, respectively. Stimulation of the selected cells was identical to that of whole PBMC cultures, except for NK cells which were stimulated for only 3 days.
T cell- or NK-cell mediated cytotoxicity was assessed according to a well established protocol,^23 using a 4h ^51Cr radioisotope assay. HMEC that had either been left untreated or incubated with F-Ara (10μg/mL) overnight were used as target cells, to be labeled 0.4 mCi Na2^51CrO4 for 2 hours. After 3 washing steps, target cells were adjusted to 10^4 cells/mL and coincubated with PBMC, CD8+ or NK effector cells at descending effector to target ratios for another 4 hours. Supernatants were transfered to dry scintillation plates and counted in a γ-counter (all from Canberra Packard, Darmstadt, Germany). Autologous (effector) B-Lymphoblastoid cell lines (B-LCL) and K562 as NK sensitive cells were taken as additional control targets. The percentage of specific lysis was calculated as: [(experimental release−spontaneous release)/(maximal release−spontaneous release)]×100. Spontaneous release in all experiments was always below 20%. […]

[9] = system: HMEC as target cells for allogeneic NK cells; assay: 51Cr release assay, lysis of HMEC by allogeneic NK cells; format: cell-based, human; settings: F-Ara 10 μg/mL, 24 hours
Description: T cell- or NK-cell mediated cytotoxicity was assessed according to a well established protocol,^23 using a 4h ^51Cr radioisotope assay. HMEC that had either been left untreated or incubated with F-Ara (10μg/mL) overnight were used as target cells, to be labeled 0.4 mCi Na2^51CrO4 for 2 hours. After 3 washing steps, target cells were adjusted to 10^4 cells/mL and coincubated with PBMC, CD8+ or NK effector cells at descending effector to target ratios for another 4 hours. Supernatants were transfered to dry scintillation plates and counted in a γ-counter (all from Canberra Packard, Darmstadt, Germany). […] The percentage of specific lysis was calculated as: [(experimental release−spontaneous release)/(maximal release−spontaneous release)]×100.

endothelial cells = assay: Radiation induced endothelial cell death; format: cell-based; settings: data not shown
Text: Since in many pre-transplant protocols fludarabine is used in combination with ionizing radiation it was important to test whether these two compounds would cooperate in affecting endothelial cells.

[10] = manufacturers's instructions, cited from earlier work
[11] = system: HaCaT human keratinocyte cell line; assay: Flow cytometric apoptosis analysis in HaCaT; format: cell-based; settings: Defibrotide alone, data not shown
Description: as §1
as §2, with “Samples were mounted and subjected to microscopic analysis.” left out
(§7) Skin, the gastrointestinal tract (GIT) and most likely the lung are among the primary targets of GvHD. […] Again, the protective potential of Defibrotide (100 μg/mL) was assessed.

[12] = system: A549 alveolar epithelial cells; assay: Flow cytometric apoptosis analysis in A549; format: cell-based, human; settings: Defibrotide alone, data not shown
Description: as §1
as §2, with “Samples were mounted and subjected to microscopic analysis.” left out
as §7

Molecule: Nc1nc(F)nc2c1ncn2[C@@H]1O[C@H](CO)[C@@H](O)[C@@H]1O [F-Ara, 2-fluoro-9-β-D-arabinofuranosyladenine]
- apoptosis in HMEC ([1]; F-Ara 1 μg/mL, 48 hours): no longer effective
- apoptosis in HMEC ([1]; F-Ara 10 and 5 μg/mL, 48 hours): causes apoptosis
- apoptosis in HMEC ([1]; after 24h, data not shown): already detectable
- apoptosis induction [2]: resistant
- apoptosis induction [3]: resistant
- cell death of AML cells ([4]; F-Ara 10 μg/mL, almost 50% died spontaneously): up to 80%
- % apoptotic cells ([5]; F-Ara 10 μg/mL, untreated control 5.1%): 40.1%
- concentrations effective in inducing ICAM-1 ([6]; 24 hours): ≥ 1 µg/mL
- ICAM-1 expression on HMEC ([6]; F-Ara, 24 hours of incubation): significantly enhances expression
- induction of mean fluorescence intensity of MHC class I ([7]; F-Ara 5 μg/mL): 1.3 fold
- induction of mean fluorescence intensity of MHC class I ([7]; F-Ara 10 μg/mL): 1.5 fold
- MHC class II expression (MHC class II on HMEC): remained unchanged
- lysis of F-Ara-treated HMEC by CD8+ CTL versus control HMEC ([8]; CD8+ selected effectors): significantly higher
- antigenicity of HMEC towards allogeneic PBMC ([8]; F-Ara (1 μg/mL) treated targets, all E/T ratios tested): increased the antigenicity
- allogenicity of HMEC towards NK cells [9]: significantly downregulated
- enhancement of radiation induced cell death (endothelial cells; combination with ionizing radiation): could not find any enhancement

Molecule: Nc1nc(F)nc2c1ncn2[C@@H]1O[C@H](COP(=O)(O)OP(=O)(O)OP(=O)(O)O)[C@@H](O)[C@@H]1O [fludarabine triphosphate]
- median intracellular level in target cells ([10]; concentration representing 20 μM): 5.8 µg/mL
- median intracellular level in target cells [10]: 20 µM

Molecule: Defibrotide
- protection of F-Ara induced cell death ([1]; Defibrotide 100 to 0.1 μg/mL with F-Ara 10 μg/mL, 48 hours): dose-dependent protection
- endothelial cell viability ([1]; Defibrotide alone, 48 hours): did not influence endothelial cell viability
- protection from F-Ara induced apoptosis ([1]; pretreatment with Defibrotide 1 hour, washing, then F-Ara 48 hours): sufficient to protect cells
- endothelial programmed cell death ([1]; pretreatment with F-Ara 1 hour, subsequent incubation with Defibrotide): did not lead to endothelial programmed cell death
- number of apoptotic cells [11]: did not influence the number of apoptotic cells
- number of apoptotic cells [12]: did not influence the number of apoptotic cells
- protection of AML cells from F-Ara mediated toxicity ([4]; Defibrotide 100 μg/mL with F-Ara 10 μg/mL): not able to protect
- % apoptotic cells ([5]; F-Ara 10 μg/mL with Defibrotide 100 μg/mL): 43.1%
- F-Ara induced ICAM-1 expression ([6]; Defibrotide 100 μg/mL and 10 μg/mL with F-Ara 10 μg/mL): antagonized
- ICAM-1 expression ([6]; Defibrotide alone, every concentration tested, data not shown): remained unchanged
- MHC class I molecules, F-Ara versus F-Ara+D treated HMEC ([7]; data not shown): significant downregulation
- specific lysis of HMEC by CD8+ CTL ([8]; pretreatment of target HMEC with F-Ara and Defibrotide (F-Ara+D)): downregulated specific lysis even below control levels
- protection against radiation induced endothelial cell damage (endothelial cells): not protective
